Data: patent US20260240799A1, “TREATMENT OF PRIMARY BILIARY CHOLANGITIS” (Genfit, priority 2023, published 2026)
“Also recorded” adds a separate entry of the source.

Tests used:
patients with PBC [1] = test: safety and tolerability in PBC patients; format: in vivo, human
[2] = test system: participants with primary biliary cholangitis; test: PROMIS Fatigue SF 7a T-score in phase 3 trial NCT04526665 (ELATIVE); format: in vivo, human; set-up: key to PROMIS Fatigue T-score, observed mean / PROMIS Fatigue T-score, observed median: standardized T-score, mean 50, SD 10; higher = more fatigue; settings: for Change from baseline in PROMIS Fatigue T-score, mean / Change from baseline in PROMIS Fatigue T-score, median / Change from baseline in PROMIS Fatigue T-score, LS means (MMRM) / Change from baseline in PROMIS Fatigue T-score, LS means difference with placebo (MMRM) / PROMIS Fatigue T-score, observed mean / PROMIS Fatigue T-score, observed median: 80 mg once daily
From the text: The patient's fatigue can be measured using the PROMIS Short Form—Fatigue 7a questionnaire (V1.0) to assess change from baseline in fatigue during treatment. The PROMIS Fatigue item banks assess a range of self-reported symptoms over the past seven days, from mild subjective feelings of tiredness to an overwhelming, debilitating, and sustained sense of exhaustion that likely decreases one's ability to execute daily activities and function normally in family or social roles. Fatigue is divided into the experience of fatigue (frequency, duration, and intensity) and the impact of fatigue on physical, mental, and social activities. PROMIS instruments are scored using item-level calibrations. The final score is represented by the T-score, a standardized score with a mean of 50 and a standard deviation (SD) of 10. A 1-point decrease of the PROMIS Fatigue T-score represents a meaningful change in fatigue. This improvement corresponds to changes in alertness and well-being that are easily noticeable. Likewise, a noticeable worsening corresponds to a 1-point increase of the PROMIS Fatigue T-score (Schattenberg et al.; “Evaluating Pruritus and Fatigue in Patients with Treatment-Refractory Primary Biliary Cholangitis” EASL 21-24 Jun. 2023).
Participants aged 18 to 75 years, who had been diagnosed with primary biliary cholangitis according to established criteria, were recruited at 82 sites in 14 countries. Inclusion criteria were an alkaline phosphatase level of ≥1.67 times the upper limit of the normal range (ULN), and a total bilirubin level of ≤2 times the ULN. Prior to screening, eligible participants had received 13 to 15 mg/kg ursodeoxycholic acid treatment per day for at least 12 months (stable dose for at least 3 months) or were intolerant to ursodeoxycholic acid (no treatment for at least 3 months).
In this double-blind, placebo-controlled, phase 3 trial, participants with an inadequate response or intolerance to ursodeoxycholic acid were randomized 2:1 to receive elafibranor 80 mg or placebo once daily. Participants receiving stable doses of ursodeoxycholic acid for at least three months prior to enrollment continued their treatment regimen throughout the trial. The overall double-blind treatment period consisted of two parts. In part one, all randomized patients received a minimum of 52 weeks of double-blind treatment. In part two, participants continued to receive double-blind treatment beyond Week 52 in a variable treatment period until all participants had completed their Week 52 assessment or until a maximum treatment duration of 104 weeks, whichever came first. The first database lock occurred after the last participant completed its Week 52 visit in the double-blind period. At the end of the double-blind period (lasting 52 to 104 weeks), participants could optionally enter an open-label extension where they would receive elafibranor 80 mg for up to five years.
From September 2020 through May 2023, 161 participants were randomly assigned to receive elafibranor 80 mg (108 participants) or placebo (53 participants); these participants made up the intent-to-treat (ITT) and safety populations. The pruritus intent-to-treat population included 66 participants with moderate-to-severe pruritus (44 receiving elafibranor, 22 receiving placebo).
The Patient Reported Outcome Measurement Information System (PROMIS®) is the product of a massive effort begun in 2004 and based on modern measurement theory, to address the need to develop precise, consensus measures of health outcome, including fatigue, suitable for use across chronic diseases in particular PBC. The PROMIS Fatigue Short Form 7a (PROMIS Fatigue SF 7a) is a seven-item questionnaire derived from the 95-item PROMIS Fatigue item bank. […]

[3] = test system: serum alkaline phosphatase (ALP); test: serum ALP change in phase 3 study on PBC (ELATIVE); format: in vivo, human; settings: elafibranor 80 mg treatment group; PBC (placebo 3.2%)
patients with PBC [4] = settings: cited from earlier work
[5] = Week 4, Pruritus ITT analysis set
[6] = Week 13, Pruritus ITT analysis set
[7] = Week 26, Pruritus ITT analysis set
[8] = Week 39, Pruritus ITT analysis set
[9] = Week 52, Pruritus ITT analysis set

With `CSc1ccc(C(=O)C=Cc2cc(C)c(OC(C)(C)C(=O)O)c(C)c2)cc1` [Elafibranor, 2-(2,6-dimethyl-4-{3-[4-(methylsulfanyl)phenyl]-3-oxopropen-1-yl}phenoxy)-2-methylpropanoic acid] as the compound, how does the safety and tolerability (patients with PBC [1]) read?
Its safety and tolerability is “safe and well-tolerated”.

What about the “effect on fatigue (PROMIS Fatigue SF 7a) compared to placebo, in words” value ([2]; 80 mg daily, participants with PBC) of the same compound?
Its value is “significative reduction; also recorded: improvement in fatigue”.

And the “Change from baseline in PROMIS Fatigue T-score, mean” value ([2]; Week 4, ITT analysis set)?
The value was −1.66.

What about the “Change from baseline in PROMIS Fatigue T-score, median” value (from here on “Change from baseline … median”) ([2]; Week 4, ITT analysis set) of the same compound?
The value was −1.60.

And the “Change from baseline in PROMIS Fatigue T-score, mean” value [2, 5]?
Its value is −2.86.

What about the “Change from baseline … median” value [2, 5] of the same compound?
The value was −2.70.

What about the “Change from baseline in PROMIS Fatigue T-score, LS means (MMRM)” value (“Change from baseline … LS means (MMRM)” below) ([2]; Week 13, ITT analysis set) of the same compound?
The value was −2.16.

And the “Change from baseline in PROMIS Fatigue T-score, LS means difference with placebo (MMRM)” value (from here on “Change … LS means difference with placebo (MMRM)”) ([2]; Week 13, ITT analysis set)?
The value was −2.11.

What about the “Change from baseline in PROMIS Fatigue T-score, mean” value ([2]; Week 13, ITT analysis set) of the same compound?
The value was −2.24.

And the “Change from baseline … median” value ([2]; Week 13, ITT analysis set)?
Its value is −1.50.

What about the “PROMIS Fatigue T-score, observed mean” value ([2]; Week 13, ITT analysis set) of the same compound?
The value was 53.63.

What about the “PROMIS Fatigue T-score, observed median” value ([2]; Week 13, ITT analysis set) of the same compound?
Its value is 52.95.

And the “Change from baseline … LS means (MMRM)” value [2, 6]?
Its value is −3.50.

What about the “Change … LS means difference with placebo (MMRM)” value [2, 6] of the same compound?
Its value is −3.15.

And the “Change from baseline in PROMIS Fatigue T-score, mean” value [2, 6]?
Its value is −3.54.

What about the “PROMIS Fatigue T-score, observed mean” value [2, 6] of the same compound?
The value was 57.49.

And the “PROMIS Fatigue T-score, observed median” value [2, 6]?
Its value is 59.20.

What about the “Change from baseline in PROMIS Fatigue T-score, mean” value ([2]; Week 26, ITT analysis set) of the same compound?
Its value is −2.23.

And the “Change from baseline … median” value ([2]; Week 26, ITT analysis set)?
The value was −1.55.

What about the “Change from baseline in PROMIS Fatigue T-score, mean” value [2, 7] of the same compound?
Its value is −3.50.

And the “Change from baseline … median” value [2, 7]?
Its value is −3.20.

And the “Change from baseline in PROMIS Fatigue T-score, mean” value ([2]; Week 39, ITT analysis set)?
The value was −2.41.

And the “Change from baseline … median” value ([2]; Week 39, ITT analysis set)?
The value was −1.45.

And the “Change from baseline in PROMIS Fatigue T-score, mean” value [2, 8]?
The value was −4.54.

What about the “Change from baseline … median” value [2, 8] of the same compound?
Its value is −4.05.

And the “Change from baseline … LS means (MMRM)” value ([2]; Week 52, ITT analysis set)?
Its value is −2.45.

And the “Change … LS means difference with placebo (MMRM)” value ([2]; Week 52, ITT analysis set)?
Its value is −1.23.

And the “Change from baseline in PROMIS Fatigue T-score, mean” value ([2]; Week 52, ITT analysis set)?
Its value is −2.75.

And the “Change from baseline … median” value ([2]; Week 52, ITT analysis set)?
The value was −2.80.

And the “PROMIS Fatigue T-score, observed mean” value ([2]; Week 52, ITT analysis set)?
The value was 53.70.

And the “PROMIS Fatigue T-score, observed median” value ([2]; Week 52, ITT analysis set)?
Its value is 53.70.

What about the “Change from baseline … LS means (MMRM)” value [2, 9] of the same compound?
The value was −4.53.

What about the “Change … LS means difference with placebo (MMRM)” value [2, 9] of the same compound?
The value was −3.77.

And the “Change from baseline in PROMIS Fatigue T-score, mean” value [2, 9]?
Its value is −4.58.

What about the “Change from baseline … median” value [2, 9] of the same compound?
The value was −4.20.

And the “PROMIS Fatigue T-score, observed mean” value [2, 9]?
Its value is 56.23.

And the “PROMIS Fatigue T-score, observed median” value [2, 9]?
The value was 56.45.

And the “mean relative change from baseline to endpoint in serum ALP” value [3]?
The value was −48.3%.

For `CC[C@H]1[C@@H](O)[C@@H]2[C@H](CC[C@]3(C)[C@@H]([C@H](C)CCC(=O)O)CC[C@@H]23)[C@@]2(C)CC[C@@H](O)C[C@@H]12` [OCA, obeticholic acid], which “fatigue as side effect of treatment” value (patients with PBC [4]) is on record?
The value was “one of the most common side effects”.
